Results as given in patent US7494714B2, “Surfaces that resist the adsorption of biological species” (President & Fellows of Harvard College, priority 2000, dated 2009).
Where a SMILES comes first, the peptide text is derived from it. [ ]: non-standard residue; d: D form. Sar = CNCC(=O)O

Tests used:
lysozyme = lysozyme (Gallus gallus, UniProt P00698); assay: SPR adsorption of lysozyme to SAMs / grafted polymer films; assay type: binding; details: for % Lysoff (percent decrease in adsorbed protein during 10 minute PBS wash) / dR/dton lysozyme (maximum initial rate of adsorption) / % MLlys 3 min / % MLlys 30 min: mixed SAM —CONRR′/—CO2H; for % MLlys 3 min: 1 mg/mL lysozyme flowed 3 min; for % MLlys 30 min: 1 mg/mL lysozyme flowed 30 min; for % ML 3 min / dR/dt on: lysozyme; for % ML 3 min / dR/dt on / % Lys off: single-component SAMs (a) and mixed SAMs (b)
Sequence of lysozyme (P00698 19-147): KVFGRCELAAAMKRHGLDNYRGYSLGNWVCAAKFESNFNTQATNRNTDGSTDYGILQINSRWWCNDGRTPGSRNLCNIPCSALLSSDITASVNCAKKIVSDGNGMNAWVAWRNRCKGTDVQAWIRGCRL

[1] = Contact angle of deionized water under cyclooctane; assay type: physicochemical; details: mixed SAM
fibrinogen = target: T1, fibrinogen (Bos taurus, UniProt P02672+P02676+P12799); assay: SPR adsorption of fibrinogen to SAMs / grafted polymer films; assay type: binding, bovine; details: for % Fiboff (percent decrease in adsorbed protein during 10 minute PBS wash) / dR/dton fibrinogen (maximum initial rate of adsorption) / % MLfib 3 min / % MLfib 30 min: mixed SAM —CONRR′/—CO2H; for % MLfib 3 min: 1 mg/mL fibrinogen flowed 3 min, relative to —CONH(CH2)10CH3/—CO2H SAM; for % MLfib 30 min: 1 mg/mL fibrinogen flowed 30 min; for % ML 30 min / dR/dt on / % ML 3 min: fibrinogen; for % ML 30 min / dR/dt on / % Fib off: single-component SAMs (a) and mixed SAMs (b); for % ML 3 min: single-component SAMs (a, RSH) and mixed SAMs (b, RNH2)
T1 sequence (P02672 20-615): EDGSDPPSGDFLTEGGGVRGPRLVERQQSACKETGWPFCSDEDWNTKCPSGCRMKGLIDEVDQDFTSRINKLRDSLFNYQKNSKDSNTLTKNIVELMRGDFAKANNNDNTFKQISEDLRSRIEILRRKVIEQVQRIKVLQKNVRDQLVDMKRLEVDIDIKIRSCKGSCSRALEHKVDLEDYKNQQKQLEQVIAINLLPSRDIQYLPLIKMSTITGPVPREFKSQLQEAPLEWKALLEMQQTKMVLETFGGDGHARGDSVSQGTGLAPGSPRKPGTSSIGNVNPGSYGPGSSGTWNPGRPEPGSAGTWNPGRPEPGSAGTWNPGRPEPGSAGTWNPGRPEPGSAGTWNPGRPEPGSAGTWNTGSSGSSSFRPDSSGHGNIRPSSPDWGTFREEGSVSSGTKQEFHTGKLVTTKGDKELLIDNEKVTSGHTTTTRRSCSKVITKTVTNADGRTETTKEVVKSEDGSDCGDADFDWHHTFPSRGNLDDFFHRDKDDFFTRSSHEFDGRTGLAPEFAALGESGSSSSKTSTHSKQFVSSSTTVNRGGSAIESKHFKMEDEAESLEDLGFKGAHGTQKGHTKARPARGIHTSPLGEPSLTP
T1 sequence (P02676 1-468): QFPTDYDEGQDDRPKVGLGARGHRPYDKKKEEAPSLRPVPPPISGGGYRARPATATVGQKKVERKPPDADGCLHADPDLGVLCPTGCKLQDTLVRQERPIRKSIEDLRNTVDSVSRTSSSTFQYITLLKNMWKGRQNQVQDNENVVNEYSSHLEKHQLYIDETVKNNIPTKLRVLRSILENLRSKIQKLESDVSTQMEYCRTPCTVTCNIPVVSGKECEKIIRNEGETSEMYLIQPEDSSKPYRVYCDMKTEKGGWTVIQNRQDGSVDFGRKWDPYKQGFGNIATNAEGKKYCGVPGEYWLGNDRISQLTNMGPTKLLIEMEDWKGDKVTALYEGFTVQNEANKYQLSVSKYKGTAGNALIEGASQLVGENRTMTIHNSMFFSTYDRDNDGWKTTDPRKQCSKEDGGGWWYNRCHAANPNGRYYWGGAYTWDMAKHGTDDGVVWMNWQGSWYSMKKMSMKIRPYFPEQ
T1 sequence (P12799 25-444): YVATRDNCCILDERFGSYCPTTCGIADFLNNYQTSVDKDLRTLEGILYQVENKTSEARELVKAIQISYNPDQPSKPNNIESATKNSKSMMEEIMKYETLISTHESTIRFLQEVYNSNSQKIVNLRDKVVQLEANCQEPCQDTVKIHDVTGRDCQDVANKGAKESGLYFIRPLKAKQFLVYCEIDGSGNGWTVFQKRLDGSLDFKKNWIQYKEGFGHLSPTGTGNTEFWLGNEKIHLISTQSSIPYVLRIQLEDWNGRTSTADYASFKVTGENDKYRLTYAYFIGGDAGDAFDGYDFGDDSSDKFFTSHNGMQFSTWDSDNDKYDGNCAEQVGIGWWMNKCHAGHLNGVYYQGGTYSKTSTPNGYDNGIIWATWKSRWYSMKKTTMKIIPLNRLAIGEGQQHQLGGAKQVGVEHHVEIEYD

SMILES	% Lysoff (percent decrease in adsorbed protein during 10 minute PBS wash) (lysozyme) [%]	dR/dton lysozyme (maximum initial rate of adsorption) (lysozyme) [RU/sec]	% MLlys 3 min (lysozyme) [%]	% MLlys 30 min (lysozyme) [%]	θco sessile [1] [degrees]	% Fiboff (percent decrease in adsorbed protein during 10 minute PBS wash) (fibrinogen) [%]	dR/dton fibrinogen (maximum initial rate of adsorption) (fibrinogen) [RU/sec]	% MLfib 3 min (fibrinogen) [%]	% MLfib 30 min (fibrinogen) [%]	% ML 3 min (lysozyme; footnote b (30 minutes)) [%]	% ML 3 min (lysozyme) [%]	dR/dt on (lysozyme) [RU/sec]	% Lys off (lysozyme) [%]	% ML 30 min (fibrinogen) [%]	dR/dt on (fibrinogen) [RU/sec]	% ML 3 min (fibrinogen) [%]	% Fib off (fibrinogen) [%]
CNCCN(C)P(=O)(N(C)C)N(C)C	660 ± 15	70 ± 30	0.2 ± 0.2	0.3 ± 0.2	63	19 ± 1	120 ± 20	0.8 ± 0.1	4.3 ± 0.6	–	–	–	–	–	–	–	–
NC(CCCO)(CCCO)CCCO [H2NC(CH2CH2CH2OH)3]	140 ± 2	1400 ± 110	30 ± 0.6	73 ± 5	70	14 ± 0.5	350 ± 220	34 ± 2.2	57 ± 0.2	–	–	–	–	–	–	–	–
CNCCN(C)C	300 ± 30	400 ± 200	1.9 ± 0.1	14 ± 2	49	13 ± 2	140 ± 40	23 ± 4	40 ± 2	–	–	–	–	–	–	–	–
O=CN1CCNCC1	73 ± 15	160 ± 50	8 ± 0.3	12 ± 0.3	38	10 ± 2	200 ± 50	23 ± 1	39 ± 1	–	–	–	–	–	–	–	–
CN1CCNCC1	170 ± 20	60 ± 40	1.1 ± 0.2	1.0 ± 0.4	49	1.0 ± 0.2	50 ± 30	8.2 ± 1	16 ± 0.2	–	–	–	–	–	–	–	–
Nc1ccc(O[C@@H]2O[C@H](CO)[C@@H](O)[C@H](O)[C@H]2O)cc1	78 ± 1.7	1200 ± 270	27 ± 3.3	83 ± 2.3	–	38 ± 0.8	1200 ± 270	51 ± 1.8	67 ± 0.9	–	–	–	–	–	–	–	–
CNCC(=O)N(C)CC(=O)N(C)CC(=O)N(C)CC(=O)N(C)C [H(CH3)N(Sar)4N(CH3)2] (H-[Sar][Sar][Sar][Sar]-NMe2)	70 ± 30	80 ± 40	0.8 ± 0.1	1.5 ± 0.7	–	–	70 ± 20	0.5 ± 0.0	1.7 ± 0.2	–	–	–	–	–	–	–	–
COC[C@H](OC)[C@H](OC)[C@H](OC)[C@@H](CN(C)C(=O)CCCCCCCCCCS)OC [Entry 4a]	–	–	–	–	–	–	–	–	–	0.5 ±0.2	0.5 ±0.0	29 ±20	7 ±0	0.7 ±0.1	30 ±14	0.2 ±0.1	66 ±5
N#CCC(N)=C(C#N)C#N	370 ± 20	1900 ± 400	13 ± 0.3	28 ± 3.7	–	11 ± 0.0	260 ± 70	34 ± 1.1	58 ± 3	–	–	–	–	–	–	–	–
CN(CCN(C)P(=O)(N(C)C)N(C)C)C(=O)CCCCCCCCCCS [Entry 1a]	–	–	–	–	–	–	–	–	–	17 ±0.3	4.5 ±0.1	330 ±110	240 ±2	37 ±2	83 ±40	13 ±0.2	29 ±0.4
CC(=O)N1CCN(C(=O)CCCCCCCCCCCCCCCS)CC1 [Entry 2a]	–	–	–	–	–	–	–	–	–	0.8 ±0.2	0.8 ±0.3	100 ±10	110 ±0	2.2 ±0.1	22 ±10	0.7 ±0.0	6.8 ±5

The remaining lines, values ahead:

% Lysoff (percent decrease in adsorbed protein during 10 minute PBS wash) (lysozyme) [%]	dR/dton lysozyme (maximum initial rate of adsorption) (lysozyme) [RU/sec]	% MLlys 3 min (lysozyme) [%]	% MLlys 30 min (lysozyme) [%]	θco sessile [1] [degrees]	% Fiboff (percent decrease in adsorbed protein during 10 minute PBS wash) (fibrinogen) [%]	dR/dton fibrinogen (maximum initial rate of adsorption) (fibrinogen) [RU/sec]	% MLfib 3 min (fibrinogen) [%]	% MLfib 30 min (fibrinogen) [%]	% ML 3 min (lysozyme; footnote b (30 minutes)) [%]	% ML 3 min (lysozyme) [%]	dR/dt on (lysozyme) [RU/sec]	% Lys off (lysozyme) [%]	% ML 30 min (fibrinogen) [%]	dR/dt on (fibrinogen) [RU/sec]	% ML 3 min (fibrinogen) [%]	% Fib off (fibrinogen) [%]	SMILES
150 ± 10	2700 ± 400	31 ± 6	71 ± 5	70	16 ± 1	1400 ± 260	66 ± 0.3	74 ± 0.3	–	–	–	–	–	–	–	–	CC(=O)CCN
150 ± 2	670 ± 50	4.3 ± 0.2	43 ± 3	70	20 ± 2	330 ± 70	26 ± 0.2	58 ± 0.3	–	–	–	–	–	–	–	–	CNCCN(C)C(=O)OC
630 ± 4	620 ± 130	2.1 ± 1.5	8.8 ± 0.5	–	21 ± 0.7	55 ± 40	8 ± 1	22 ± 0.4	–	–	–	–	–	–	–	–	CN(C)C(=O)CNC(=O)CNC(=O)CN [H2N(Gly)3N(CH3)2] (H-Gly-Gly-Gly-NMe2)
330 ± 15	170 ± 30	0.5 ± 0.2	3.8 ± 2	46	15 ± 1	40 ± 10	2.1 ± 0.3	12 ± 3	–	–	–	–	–	–	–	–	CNCCN(C)C(C)=O
290 ± 3	970 ± 400	13 ± 7	20 ± 0.3	–	4.8 ± 2	820 ± 500	47 ± 12	68 ± 7	–	–	–	–	–	–	–	–	NC[C@H](O)[C@H](O)[C@H](O)[C@@H](O)CO
350 ± 10	590 ± 270	7.2 ± 1	15 ± 1	–	19 ± 0.2	202 ± 80	18 ± 0.5	33 ± 0.5	–	–	–	–	–	–	–	–	CN(C)C(=O)CN
